Measured values: patent US20250115598A1 (Anaxis Pharma Pty Ltd, priority 2021, published 2025)
Read-outs that look alike come from different tables or passages of the source.

How the values were obtained:
[1] = test system: Immortalised Mouse Dermal Fibroblasts (MDFs); assay: Cellular assay: inhibition of TSI induced necroptosis, CellTitre-Glo viability; conditions: MDF, 3 hours TSI cocktail, read-out: Inhibition of TSI-induced necroptosis (IC50 cell-based assay) in MDF
Summary of the method: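 Immortalised mouse dermal fibroblasts (2200 cells/well) pretreated 30 min with compound, 10-point 1:3 series from 36 μM, 0.3% DMSO. Then 3 h at 37° C. with TNF (100 ng/ml), Smac mimetic (500 nM) and IDN-6556 (10 μM). CellTiter-Glo luminescence normalised to DMSO (100%) and DMSO+TSI (0%); IC50 from 4-parameter logistic fit.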

[2] = biological target: endogenous MLKL in U937 (Homo sapiens (Human), UniProt Q8NB16); assay: Degradation assay: endogenous MLKL in U937 (western blot); conditions: U937, 24 h incubation, read-out: Degradation of endogenous MLKL in U937 (DC50 cell-based assay)
Summary of the method: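 MDF (seeded the day before) or U937 cells were treated 24 h at 37 °C, 10% CO2 with compound at 10, 2, 0.4, 0.08 and 0.016 μM final. Endogenous MLKL was quantified by western blot (anti-MLKL 3H1), normalized to GAPDH. Percent degradation was taken relative to DMSO control.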

[3] = Mus musculus, Fibroblast, Table 27

Chain of endogenous MLKL in U937 (Q8NB16 whole entry): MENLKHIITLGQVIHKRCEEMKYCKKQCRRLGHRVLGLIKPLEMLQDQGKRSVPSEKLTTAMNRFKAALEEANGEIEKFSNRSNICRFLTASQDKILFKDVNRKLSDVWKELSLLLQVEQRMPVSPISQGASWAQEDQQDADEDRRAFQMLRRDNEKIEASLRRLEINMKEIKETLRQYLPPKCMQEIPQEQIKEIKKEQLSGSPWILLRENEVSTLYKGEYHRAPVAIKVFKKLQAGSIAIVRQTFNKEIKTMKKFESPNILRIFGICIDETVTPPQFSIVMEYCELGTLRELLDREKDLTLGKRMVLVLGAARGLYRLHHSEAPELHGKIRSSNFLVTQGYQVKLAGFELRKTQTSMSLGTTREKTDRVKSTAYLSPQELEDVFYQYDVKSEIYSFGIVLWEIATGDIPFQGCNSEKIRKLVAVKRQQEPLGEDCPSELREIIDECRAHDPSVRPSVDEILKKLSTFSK

Row | Compound | IC50 ([1]; Table 24) | DC50 [2] | IC50 [1, 3]
1 | Nc1ncc(-c2cnn(C3CCOCC3)c2)c2[nH]nc(-c3ccc(NS(=O)(=O)C(F)F)c(OCc4cccc(Cl)c4)c3)c12 [Compound 131] | 1 to 10 µM |  | 
2 | Cc1ncsc1-c1ccc(CNC(=O)[C@@H]2C[C@@H](O)CN2C(=O)[C@@H](NC(=O)COCCOCCn2cc(-c3cnc(N)c4c(-c5ccc(NS(=O)(=O)C(F)F)c(O[C@@H](C)c6ccc(F)cc6)c5)nn(C)c34)cn2)C(C)(C)C)cc1 [Compound 1006, (2S,4R)-1-[(2S)-2-(2-{2-[2-(4-{4-amino-3-[4-(difluoromethanesulfonamido)-3-[(1S)-1-(4-fluorophenyl)ethoxy]phenyl]-1-methyl-1H-pyrazolo[4,3-c]pyridin-7-yl}-1H-pyrazol-1-yl)ethoxy]ethoxy}acetamido)-3,3-dimethylbutanoyl]-4-hydroxy-N-{[4-(4-methyl-1,3-thiazol-5-yl)phenyl]methyl}pyrrolidine-2-carboxamide] |  | < 1 µM | 1 to 10 µM
3 | Cc1ncsc1-c1ccc(CNC(=O)[C@@H]2C[C@@H](O)CN2C(=O)[C@@H](NC(=O)CCCCCCn2cc(-c3cnc(N)c4c(-c5ccc(NS(=O)(=O)C(F)F)c(O[C@@H](C)c6ccc(F)cc6)c5)nn(C)c34)cn2)C(C)(C)C)cc1 [Compound 1008, (2S,4R)-1-[(2S)-2-[7-(4-{4-amino-3-[4-(difluoromethanesulfonamido)-3-[(1 S)-1-(4-fluorophenyl)ethoxy]phenyl]-1-methyl-1H-pyrazolo[4,3-c]pyridin-7-yl}-1H-pyrazol-1-yl)heptanamido]-3,3-dimethylbutanoyl]-4-hydroxy-N-{[4-(4-methyl-1,3-thiazol-5-yl)phenyl]methyl}pyrrolidine-2-carboxamide] |  | < 1 µM | < 1 µM
4 | Cc1ncsc1-c1ccc(CNC(=O)[C@@H]2C[C@@H](O)CN2C(=O)[C@@H](NC(=O)CCN2CCCC(n3cc(-c4cnc(N)c5c(-c6ccc(NS(=O)(=O)C(F)F)c(O[C@@H](C)c7ccc(F)cc7)c6)nn(C)c45)cn3)C2)C(C)(C)C)cc1 (stereo partly drawn) [Compound 1014, (2S,4R)-1-[(2S)-2-{3-[3-(4-{4-amino-3-[4-(difluoromethanesulfonamido)-3-[(1S)-1-(4-fluorophenyl)ethoxy]phenyl]-1-methyl-1H-pyrazolo[4,3-c]pyridin-7-yl}-1H-pyrazol-1-yl)piperidin-1-yl]propanamido}-3,3-dimethylbutanoyl]-4-hydroxy-N-{[4-(4-methyl-1,3-thiazol-5-yl)phenyl]methyl}pyrrolidine-2-carboxamide] |  | < 1 µM | 1 to 10 µM
5 | Cc1ncsc1-c1ccc(CNC(=O)[C@@H]2C[C@@H](O)CN2C(=O)[C@@H](NC(=O)COCCN2CCCC(n3cc(-c4cnc(N)c5c(-c6ccc(NS(=O)(=O)C(F)F)c(O[C@@H](C)c7ccc(F)cc7)c6)nn(C)c45)cn3)C2)C(C)(C)C)cc1 (stereo partly drawn) [Compound 1015, (2S,4R)-1-[(2S)-2-(2-{2-[3-(4-{4-amino-3-[4-(difluoromethanesulfonamido)-3-[(1S)-1-(4-fluorophenyl)ethoxy]phenyl]-1-methyl-1H-pyrazolo[4,3-c]pyridin-7-yl}-1H-pyrazol-1-yl)piperidin-1-yl]ethoxy}acetamido)-3,3-dimethylbutanoyl]-4-hydroxy-N-{[4-(4-methyl-1,3-thiazol-5-yl)phenyl]methyl}pyrrolidine-2-carboxamide] |  | 1 to 10 µM | 1 to 10 µM
6 | Cc1ncsc1-c1ccc(CNC(=O)[C@@H]2C[C@@H](O)CN2C(=O)[C@@H](NC(=O)COCCN2CCC(n3cc(-c4cnc(N)c5c(-c6ccc(NS(=O)(=O)C(F)F)c(O[C@@H](C)c7ccc(F)cc7)c6)nn(C)c45)cn3)CC2)C(C)(C)C)cc1 [Compound 1018, (2S,4R)-1-[(2S)-2-(2-{2-[4-(4-{4-amino-3-[4-(difluoromethanesulfonamido)-3-[(1S)-1-(4-fluorophenyl)ethoxy]phenyl]-1-methyl-1H-pyrazolo[4,3-c]pyridin-7-yl}-1H-pyrazol-1-yl)piperidin-1-yl]ethoxy}acetamido)-3,3-dimethylbutanoyl]-4-hydroxy-N-{[4-(4-methyl-1,3-thiazol-5-yl)phenyl]methyl}pyrrolidine-2-carboxamide] |  |  | 1 to 10 µM
7 | C[C@H](Oc1cc(-c2nn(C)c3c(-c4cnn(CCCCCCCOc5cccc6c5C(=O)N(C5CCC(=O)NC5=O)C6=O)c4)cnc(N)c23)ccc1NS(=O)(=O)C(F)F)c1ccc(F)cc1 (stereo partly drawn) [Compound 1031, N-(4-{4-amino-7-[1-(7-{[2-(2,6-dioxopiperidin-3-yl)-1,3-dioxo-2,3-dihydro-1H-isoindol-4-yl]oxy}heptyl)-1H-pyrazol-4-yl]-1-methyl-1H-pyrazolo[4,3-c]pyridin-3-yl}-2-[(1 S)-1-(4-fluorophenyl)ethoxy]phenyl)-1,1-difluoromethanesulfonamide] |  |  | < 1 µM
8 | N-(4-(4-amino-1-methyl-7-(1-(1,2,2-trimethylpiperidin-4-yl)-1H-pyrazol-4-yl)-1H-pyrazolo[4,3-c]pyridin-3-yl)-2-((S)-1-(4-fluorophenyl)ethoxy)phenyl)-1,1-difluoromethanesulfonamide [Compound 113] | < 1 µM |  | 
